For one assay, the target named is CDK9 (Homo sapiens, UniProt P50750). In words: Inhibition of CDK9 kinase activity (caliper mobility shift assay). The format is biochemical. The following applies: for inhibition at 0.01 µM: compound at 10 nM. The protocol:
(§1) Compounds were tested at a concentration of 10 nM with detection in duplicate wells, or tested at 10 concentrations starting from 10 µM with three-fold serial dilutions, with detection in duplicate wells.
(§2) The inhibitory effect of the compounds on the activity of CDK9 protein kinase was detected by the caliper mobility shift assay method. 250 nL of the compound at 100-fold final concentration was transferred to a target 384-well-plate with a dispenser Echo 550. A kinase solution at 2.5-fold final concentration was prepared using 1× kinase buffer. 10 µL of the kinase solution at 2.5-fold final concentration was added to the compound well and positive control well respectively. 10 µL of 1× kinase buffer was added to the negative control well. The 384-well plate was centrifuged at 1000 rpm for 30 seconds and incubated at room temperature for 10 minutes. A mixed solution of ATP and kinase substrate at 5/3-fold final concentration was prepared with 1× kinase buffer, and to the 384-well plate was added with 15 µL per well of the mixed solution of ATP and substrate at 5/3-fold final concentration to start the reaction. The plate was centrifuged at 1000 rpm for 30 seconds, shaken to mix evenly, and incubated at room temperature for a corresponding time. 30 µL of detection stopping solution was added to terminate the kinase reaction. The 384-well plate was centrifuged at 1000 rpm for 30 seconds and shaken to mix evenly. The conversion rate was read with Caliper EZ Reader. The percent conversion inhibition rate = (% positive control conversion rate mean - % sample conversion rate / (% positive control conversion rate mean - % negative control conversion rate mean). Among them: negative control wells represent the conversion rate readings of kinase buffer background wells; positive control wells represent the conversion rate readings of wells without inhibition by compound. With the log value of concentration as the x-axis and the percentage inhibition rate as the y-axis, a dose-response curve was fitted using the log (inhibitor) vs. response -Variable slope of the analysis software GraphPad Prism 5 to obtain the IC50 value of each compound on enzyme activity. Calculation formula: y=Bottom + (Top-Bottom)/(1+10^((LogIC50-x) × hillslope)), x: logarithm of inhibitor concentration; y: % inhibition rate.

For the next assay, the target named is TYK2 (Homo sapiens, UniProt P29597). The assay can be described thus: Kinase selectivity, inhibition rate at 10 nM (caliper mobility shift assay). The format is biochemical. Particulars: compound at 10 nM. The protocol:
as §1, §2
According to the description of the above experiment on kinase activity inhibition, some compounds were tested for their selective inhibition rate against the kinases of CDK7, CDK9, JAK1, JAK2, JAK3, ITK, RET, TYK2, and LRRK2 at 10 nM. The results are shown in Table 3 below: (Inhibition rate range: A>50%; B: 25-49%; C: <25%): […]

Molecules are shown by their SMILES. pIC50: −log10 of the molar value. Where two headings read alike, the source gives them in different places. Some results are limits rather than exact numbers.

Sequence of CDK9 (P50750 whole entry): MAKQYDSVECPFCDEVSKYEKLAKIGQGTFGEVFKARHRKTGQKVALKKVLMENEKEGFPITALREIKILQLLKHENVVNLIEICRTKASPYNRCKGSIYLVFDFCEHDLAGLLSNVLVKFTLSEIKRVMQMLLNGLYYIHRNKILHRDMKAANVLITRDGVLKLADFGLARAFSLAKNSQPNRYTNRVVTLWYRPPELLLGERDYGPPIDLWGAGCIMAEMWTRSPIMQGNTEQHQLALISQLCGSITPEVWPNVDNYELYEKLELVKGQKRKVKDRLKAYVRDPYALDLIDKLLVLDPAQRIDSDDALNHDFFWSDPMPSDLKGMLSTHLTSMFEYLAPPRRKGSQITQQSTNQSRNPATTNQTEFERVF
Sequence of CDK9 (O60563 whole entry partner): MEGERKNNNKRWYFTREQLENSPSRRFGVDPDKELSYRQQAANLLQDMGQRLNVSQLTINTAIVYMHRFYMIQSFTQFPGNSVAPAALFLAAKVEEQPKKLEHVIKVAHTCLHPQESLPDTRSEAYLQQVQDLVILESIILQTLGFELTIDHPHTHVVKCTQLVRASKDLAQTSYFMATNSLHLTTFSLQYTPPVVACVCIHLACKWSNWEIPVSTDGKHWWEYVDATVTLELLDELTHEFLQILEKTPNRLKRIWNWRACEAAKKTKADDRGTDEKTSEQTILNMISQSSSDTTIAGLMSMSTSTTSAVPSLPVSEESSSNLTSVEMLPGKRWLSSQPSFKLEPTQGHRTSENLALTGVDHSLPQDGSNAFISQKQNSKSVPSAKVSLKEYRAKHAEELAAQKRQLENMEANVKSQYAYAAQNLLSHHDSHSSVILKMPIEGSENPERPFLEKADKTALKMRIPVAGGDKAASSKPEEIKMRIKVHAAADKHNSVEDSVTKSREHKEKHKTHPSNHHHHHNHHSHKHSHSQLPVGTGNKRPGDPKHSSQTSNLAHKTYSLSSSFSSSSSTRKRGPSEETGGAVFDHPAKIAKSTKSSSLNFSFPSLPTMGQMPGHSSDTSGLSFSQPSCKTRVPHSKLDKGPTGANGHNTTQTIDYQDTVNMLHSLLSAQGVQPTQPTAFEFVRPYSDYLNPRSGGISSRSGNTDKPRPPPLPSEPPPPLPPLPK
Sequence of TYK2 (P29597 whole entry): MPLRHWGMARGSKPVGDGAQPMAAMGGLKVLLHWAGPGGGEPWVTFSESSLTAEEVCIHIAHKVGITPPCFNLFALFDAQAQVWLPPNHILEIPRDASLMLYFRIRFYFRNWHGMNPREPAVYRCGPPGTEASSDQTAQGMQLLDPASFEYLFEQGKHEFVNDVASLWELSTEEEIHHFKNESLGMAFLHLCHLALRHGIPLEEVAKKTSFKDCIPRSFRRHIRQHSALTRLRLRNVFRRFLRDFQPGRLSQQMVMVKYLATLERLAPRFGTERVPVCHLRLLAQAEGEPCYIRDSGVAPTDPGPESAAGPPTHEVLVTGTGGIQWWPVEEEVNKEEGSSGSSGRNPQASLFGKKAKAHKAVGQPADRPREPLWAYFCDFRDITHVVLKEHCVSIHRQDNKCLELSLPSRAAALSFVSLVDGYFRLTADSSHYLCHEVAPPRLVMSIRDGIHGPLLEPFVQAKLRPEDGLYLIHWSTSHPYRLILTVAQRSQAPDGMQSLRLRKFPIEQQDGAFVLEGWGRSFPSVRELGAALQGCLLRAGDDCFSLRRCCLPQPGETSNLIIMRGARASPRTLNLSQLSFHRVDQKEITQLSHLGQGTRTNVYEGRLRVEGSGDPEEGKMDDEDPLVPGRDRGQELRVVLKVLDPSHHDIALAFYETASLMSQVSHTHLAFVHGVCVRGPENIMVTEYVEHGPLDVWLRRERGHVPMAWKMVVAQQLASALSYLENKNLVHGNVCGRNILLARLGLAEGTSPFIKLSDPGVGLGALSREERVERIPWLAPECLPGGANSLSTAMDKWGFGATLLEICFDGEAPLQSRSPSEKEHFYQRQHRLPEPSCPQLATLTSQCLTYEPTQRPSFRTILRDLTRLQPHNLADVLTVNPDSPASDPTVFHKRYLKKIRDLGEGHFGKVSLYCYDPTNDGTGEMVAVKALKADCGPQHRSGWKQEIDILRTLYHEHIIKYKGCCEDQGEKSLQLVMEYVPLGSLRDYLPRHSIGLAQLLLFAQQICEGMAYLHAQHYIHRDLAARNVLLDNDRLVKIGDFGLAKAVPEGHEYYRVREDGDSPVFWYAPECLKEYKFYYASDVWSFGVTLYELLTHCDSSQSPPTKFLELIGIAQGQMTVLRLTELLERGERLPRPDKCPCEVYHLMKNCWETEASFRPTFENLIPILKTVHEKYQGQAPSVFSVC

Regarding `Clc1cnc2nc1NCCCCCNCc1cccc(c1)N2` [Compound 8, 1^5-chloro-2,5,11-triaza-1(2,4)-pyrimidina-3(1,3)-benzenacyclodecaphane], the pIC50 (usually the IC50 on a negative log10 scale, so that one unit is a factor of ten) on CDK9 (10 concentrations from 10 µM, three-fold dilutions) is > 7.00. The inhibition (usually how much of the control response was suppressed) at 0.01 µM is > 50% at CDK9 (selectivity panel Table 3, read-out: Inhibition rate CDK9); > 50% on CDK9 (read-out: Inhibition rate on CDK9 kinase activity); < 25% at TYK2.

Source of the values: patent EP4610262A1, “MACROCYCLIC COMPOUND AS CDK9 INHIBITOR AND USE THEREOF” (Artivila Biopharma, priority 2022, dated 2024).
